# Test results published in patent US4654348A, “Pyrazolo[4,3-d]pyrimidine derivative, process for its production, antihyperlipidemic agent containing it, its intermediate, and process for the production of the intermediate” (Nissan Chemical Industries Ltd., priority 1984, dated 1987).
# System: emulsion-induced hyperlipidemic rats
# Assay: Test 1: antihyperlipidemic activity in emulsion-induced hyperlipidemic rats (serum Chol, HDL-Chol, liver weight)
# Format: in vivo, male S.D. rats
# Details: 3 days, vs control; for inhibition in vivo at 300 mg/kg / change in vivo at 300 mg/kg: Rattus norvegicus, po, 72 h, 300 mg/kg/day via stomach tube; for inhibition in vivo at 300 mg/kg: read-out: Reduction rate of serum Chol.; for change in vivo at 300 mg/kg: read-out: Increase rate of serum HDL-Chol; for Degree of hepatomegaly (change rate of the liver weight): liver weight per 100 g body weight, 300 mg/kg/day
# Procedure: The antihyperlipidemic activity in emulsion-induced hyperlipidemic rats:
# Male S.D. rats weighing 80-90 g (4 weeks old) were used. They were divided into groups of 5 to 6 rats each. The test compounds suspended in 0.5% CMC-Na(carboxymethyl cellulose sodium salt) were given to the rats in a daily dose of 4 ml/kg (i.e. 300 mg/kg of the test compounds) via stomach tube every 10:00 a.m. After 30 min., lipids emulsion having the following composition was orally given to the rats in an amount of 2.5 ml per rat.
# Cholic acid sodium salt 10.0 g
# During the experimental period of 3 days, the rats were fed on a standard commercial diet and water ad libitum. […] The total cholesterol and HDL cholesterol were measured.
# The weight of the liver was measured. To the control group, only the aqueous CMC-Na solution and the lipids emulsion were given.
# The fractionation of lipoproteins was conducted by a dextran sulfate-MgCl2 precipitation method.
# Cholesterol in serum was measured by means of a cholesterol measuring kit (Cholesterol C-Test Wako, manufactured by Wako Junyaku Co., Ltd.), and cholesterol in HDL was measured by means of NC Hi-Set, manufactured by Nippon Chemiphar Co., Ltd.
# Further, the reduction rate of Chol was calculated by the following equation. [formula] where A is the amount of serum Chol (mg/dl) of the control group, and B is the amount of serum Chol (mg/dl) of the group to which the therapeutic agent was administered.
# Likewise, the increase rate of HDL-Chol was calculated by the following equation. [formula] where C is the amount of serum HDL-Chol (mg/dl) of the control group, and D is the amount of serum HDL-Chol (mg/dl) of the group to which the therapeutic agent was administered.
# The degree of hepatomegaly (i.e. the change rate of the liver weight) was calculated by the following equation. [formula] where E is the liver weight (g) per 100 g of the body weight of the control group, and F is the liver weight (g) per 100 g of the body weight of the group to which the therapeutic agent was administered.
Degree of hepatomegaly (change rate of the liver weight),SMILES,inhibition in vivo at 300 mg/kg [%],change in vivo at 300 mg/kg [%]
–,"CCCCCCCCCCCCOc1c2ncnc(SCC(=O)OCC)c2nn1C [Example 2, 2-Methyl-3-n-dodecyloxy-7-ethoxycarbonylmethylthio-pyrazolo[4,3-d]pyrimidine]",36,–
–,CCCCCCCCCCCCCCOc1c2ncnc(SCC(=O)OCC)c2nn1C [Example 3],41,–
+2%,"CCCCCCCCCCCCCCCOc1c2ncnc(SCC(=O)OCC)c2nn1C [Example 4, 2-Methyl-3-n-pentadecyloxy-7-ethoxycarbonylmethylthio-pyrazolo[4,3-d]pyrimidine]",48,20
+3%,CCCCCCCCCCCCCCCCCOc1c2ncnc(SCC(=O)OCC)c2nn1C [Example 5],21,38
-1%,"CCCCCCCCCCCCCCCCCCOc1c2ncnc(SCC(=O)OCC)c2nn1C [Example 6, 2-Methyl-3-n-octadecyloxy-7-ethoxycarbonylmethylthio-pyrazolo[4,3-d]pyrimidine]",31,9
–,"CCCCCCCCCCCCCCCCCCCCOc1c2ncnc(SCC(=O)OCC)c2nn1C [Example 8, 2-Methyl-3-n-eicosanyloxy-7-ethoxycarbonylmethylthio-pyrazolo[4,3-d]pyrimidine]",37,–
–,"CCCCCCCCCCCCCCCCOc1c2ncnc(SCC(=O)OC)c2nn1C [Example 15, 2-Methyl-3-n-hexadecyloxy-7-methoxycarbonylmethylthio-pyrazolo[4,3-d]pyrimidine]",53,–
–,"CCCCCCCCCCCCCCCCOc1c2ncnc(SCC(=O)OC(C)C)c2nn1C [Example 16, 2-Methyl-3-n-hexadecyloxy-7-isopropoxycarbonylmethylthio-pyrazolo[4,3-d]pyrimidine]",26,–
+5%,"CCCCCCCCCCCCCCCCOc1c2ncnc(SCCCC(=O)OCC)c2nn1C [Example 17, 2-Methyl-3-n-hexadecyloxy-7-(3-ethoxycarbonylpropylthio)-pyrazolo[4,3-d]pyrimidine]",49,–
+4%,"CCCCCCCCCCCCCCCCOc1c2ncnc(SCC(=O)c3ccccc3)c2nn1C [Example 18, 2-Methyl-3-n-hexadecyloxy-7-benzoylmethylthio-pyrazolo[4,3-d]pyrimidine]",35,42
+8%,"CCCCCCCCCCCCCCCCOc1c2ncnc(SCc3ccccc3)c2nn1C [Example 19, 2-Methyl-3-n-hexadecyloxy-7-benzylthio-pyrazolo[4,3-d]pyrimidine]",42,31
–,"CCCCCCCCCCCCCCCCOc1c2ncnc(SCc3ccc(Cl)c(Cl)c3)c2nn1C [Example 20, 2-Methyl-3-n-hexadecyloxy-7-(3,4-dichlorophenylmethylthio)-pyrazolo[4,3-d]pyrimidine]",19,–
–,"CCCCCCCCCCCCCCCCOc1c2ncnc(SCCc3ccccc3)c2nn1C [Example 21, 2-Methyl-3-n-hexadecyloxy-7-phenethylthio-pyrazolo[d]pyrimidine]",10,–
–,C=CCSc1ncnc2c(OCCCCCCCCCCCCCCCC)n(C)nc12 [Example 22],11,–
0%,"CCCCCCCCCCCCCCCCOc1c2ncnc(SCCCCCC)c2nn1C [Example 23, 2-Methyl-3-n-hexadecyloxy-7-n-hexylthiopyrazolo[4,3-d]pyrimidine]",39,30
–,"CCCCCCCCCCCCCCCCOc1c2ncnc(SCCCCCCCCCCCCCCCC)c2nn1C [Example 24, 2-Methyl-3-n-hexadecyloxy-7-n-hexadecylthio-pyrazolo[4,3-d]pyrimidine]",41,–
–,"CCCCCCCCCCCCCCCCOc1c2ncnc(SC3C(=O)OCC3C)c2nn1C (centres unmarked) [Example 25, 2-Methyl-3-n-hexadecyloxy-7-[4-(3-methyl-5-oxotetrahydrofuranyl)thio]-pyrazolo[4,3-d]pyrimidine]",11,–

Degree of hepatomegaly (change rate of the liver weight),SMILES,inhibition in vivo at 300 mg/kg [%],change in vivo at 300 mg/kg [%]
–,"CCCCCCCCCCCCCCCCOc1c2ncnc(SC(C)(C)C(=O)OCC)c2nn1C [Example 26, 2-Methyl-3-n-hexadecyloxy-7-(1-ethoxycarbonyl-1-methyl-ethylthio)pyrazolo [4,3-d]pyrimidine]",16,–
–,"CCCCCCCCOc1c2ncnc(SC(C)(C)C(=O)OCC)c2nn1C [Example 27, 2-Methyl-3-n-octyloxy-7-(1-ethoxycarbonyl1-methyl-ethylthio)-pyrazolo[4,3-d]pyrimidine]",16,–
–,"CCCCCCCCCCCCOc1c2ncnc(SC(C)(C)C(=O)OCC)c2nn1C [Example 28, 2-Methyl-3-n-dodecyloxy-7-(1-ethoxycarbonyl-1-methyl-ethylthio)-pyrazolo[4,3-d]pyrimidine]",36,–
–,"CCCCCCCCCCCCCCCCCCCCOc1c2ncnc(SC(C)(C)C(=O)OCC)c2nn1C [Example 29, 2-Methyl-3-n-eicosyloxy-7-(1-ethoxycarbonyl-1-methyl-ethylthio)-pyrazolo[4,3-d]pyrimidine]",16,–
–,"CCOC(=O)C(C)(C)Sc1ncnc2c(OCCO)n(C)nc12 [Example 30, 2-Methyl-3-(2-hydroxyethyloxy)-7-(1-ethoxycarbonyl-1-methyl-ethylthio) pyrazolo[4,3-d]pyrimidine]",28,–
–,"CCCCCCCOc1c2ncnc(SCC(=O)OCC)c2nn1-c1ccccc1 [Example 31, 2-Phenyl-3-n-heptyloxy-7-ethoxycarbonylmethylthio-pyrazolo[4,3-d]pyrimidine]",51,–
–,"CCCCCCCCCCCCOc1c2ncnc(SC(C)(C)C(=O)OCC)c2nn1-c1ccccc1 [Example 32, 2-Phenyl-3-n-dodecyloxy-7-(1-ethoxycarbonyl-1-methylethylthio)-pyrazolo[4,3-d]pyrimidine]",50,–
–,"CCCCCCCCCCCCCCCCOc1c2ncnc(SCC(=O)OCCCC)c2nn1C [Example 33, 2-Methyl-3-n-hexadecyloxy-7-n-butoxycarbonylmethylthio-pyrazolo[4,3-d]pyrimidine]",39,–
–,"CCOC(=O)CSc1ncnc2c(OC3CCC(C4CCCCC4)CC3)n(C)nc12 (centres unmarked) [Example 34, 2-Methyl-3-(4-cyclohexyl-cyclohexyloxy)-7-ethoxycarbonylmethylthio-pyrazolo[4,3-d]pyrimidine]",12,–
–,"CCOC(=O)CSc1ncnc2c(OC3CCC(C)CC3)n(C)nc12 (centres unmarked) [Example 35, 2-Methyl-3-(4-methylcyclohexyloxy)-7-ethoxycarbonylmethylthio-pyrazolo[4,3-d]pyrimidine]",13,–
–,"CCOC(=O)CSc1ncnc2c(OCCOCc3ccccc3)n(C)nc12 [Example 36, 2-Methyl-3-(2-benzyloxyethoxy)-7-ethoxycarbonylmethylthio-pyrazolo[4,3-d]pyrimidine]",44,–
–,"CCOC(=O)CSc1ncnc2c(OCCOCc3ccc(CC)cc3)n(C)nc12 [Example 37, 2-Methyl-3-[2-(4-ethylbenzyloxy)ethoxy]7-ethoxycarbonylmethylthio-pyrazolo[4,3-d]pyrimidine]",37,–
–,"CCOC(=O)CSc1ncnc2c(OCCOCc3ccc(C(C)(C)C)cc3)n(C)nc12 [Example 38, 2-Methyl-3-[2-(4-t-butylbenzyloxy)ethoxy]-7-ethoxycarbonylmethylthio-pyrazolo[4,3-d]pyrimidine]",15,–
–,"CCCCOCCOCCOc1c2ncnc(SCC(=O)OCC)c2nn1C [Example 39, 2-Methyl-3-(3,6-dioxadecyloxy)-7-ethoxycarbonylmethylthio-pyrazolo[4,3-d]pyrimidine]",11,–
–,"CCOC(=O)CSc1ncnc2c(OCCC(C)CCCC(C)CCCC(C)CCCC(C)C)n(C)nc12 (centres unmarked) [Example 40, 2-Methyl-3-(3,7,11,15-tetramethylhexadecyloxy)-7-ethoxycarbonylmethylthio-pyrazolo[4,3-d]pyrimidine]",50,–
–,"CCOC(=O)CSc1ncnc2c(OCCC(C)CCCC(C)CCCC(C)C)n(C)nc12 (centres unmarked) [Example 41, 2-Methyl-3-(3,7,11-trimethyl-dodecyloxy)-7-ethoxycarbonylmethylthio-pyrazolo[4,3-d]pyrimidine]",48,–
–,"CCCCCCCCOc1c2ncnc(SCC(=O)OCC)c2nn1C [Example 42, 2-Methyl-3-n-octyloxy-7-ethoxycarbonylmethylthio-pyrazolo[4,3-d]pyrimidine]",32,–
